US20050101595A1, “N-containing cycloalkyl-substituted amino-thiazole derivatives and pharmaceutical compositions for inhibiting cell proliferation and methods for their use” (PFIZER INC., priority 2003, published 2005)
pIC50, pKi: −log10 of the molar value. Where a name gives a salt, the structure may show the parent alone. Read-outs that look alike come from different tables or passages of the source.

Legend:
CDK2/Cyclin A = CDK2/Cyclin A (Homo sapiens, UniProt P24941); experiment: Inhibition of CDK2/Cyclin A Retinoblastoma Kinase Activity; type: biochemical; conditions: for pKi: apparent Ki, CDK2/proteolyzed cyclin A, Rb fragment substrate, 25 μM ATP
Outline: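 Baculovirus-expressed CDK2 complexed with proteolyzed cyclin A (10 or 19 nM), Rb fragment substrate, 25 μM [32P/33P]ATP, HEPES pH 7.4, 30 °C for 60 or 75 min under initial-rate conditions. Filter capture and phosphorimager readout; apparent Ki fitted to competitive or tight-binding competitive inhibition.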

[1] = target: human CDK4 and genetically truncated (1-264) cyclin D3 (Homo sapiens, UniProt P11802); experiment: Inhibition of CDK4/Cyclin D Retinoblastoma Kinase Activity; type: biochemical; conditions: for pKi: apparent Ki, CDK4/truncated cyclin D3, Rb fragment substrate, 25 μM ATP
Sequence of human CDK4 and genetically truncated (1-264) cyclin D3 (P11802 whole entry, the tested form may be a part): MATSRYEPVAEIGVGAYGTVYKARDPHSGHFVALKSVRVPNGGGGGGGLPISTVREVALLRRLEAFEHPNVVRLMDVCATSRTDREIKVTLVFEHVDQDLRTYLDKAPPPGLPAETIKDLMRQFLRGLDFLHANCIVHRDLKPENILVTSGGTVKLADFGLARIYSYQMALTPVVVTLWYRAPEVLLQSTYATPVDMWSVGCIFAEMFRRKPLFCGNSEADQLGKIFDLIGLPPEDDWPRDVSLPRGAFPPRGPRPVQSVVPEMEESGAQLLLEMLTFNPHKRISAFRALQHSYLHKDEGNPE
Sequence of human CDK4 and genetically truncated (1-264) cyclin D3 (P30281 1-264 partner): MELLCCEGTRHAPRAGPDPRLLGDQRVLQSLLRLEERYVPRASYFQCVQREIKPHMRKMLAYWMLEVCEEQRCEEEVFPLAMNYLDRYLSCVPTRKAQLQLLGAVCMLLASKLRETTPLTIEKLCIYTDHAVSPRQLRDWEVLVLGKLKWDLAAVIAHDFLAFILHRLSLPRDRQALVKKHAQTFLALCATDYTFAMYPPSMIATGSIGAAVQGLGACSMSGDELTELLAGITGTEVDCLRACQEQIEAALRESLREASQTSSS
Outline: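 Human CDK4/truncated cyclin D3 (1-264) complex from baculovirus-infected insect cells, 5 nM, phosphorylating Rb fragment (residues 386-928, His-tagged) with 25 μM [32/33P]ATP in HEPES pH 7.4, MgCl2, 2% DMSO at 30° C. for 20 min (60 min for tight binders). Filter-captured radioactivity by phosphorimager; apparent Ki from competitive or tight-binding fits.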

HCT-116 cell line = experiment: Inhibition of cell growth, tetrazolium salt (MTT) assay; type: cell-based; conditions: for pIC50: Homo sapiens, HCT-116, 120 h, MTT, three to five days, read-out: HCT-116 IC50; for HCT-116 % Inhibition at 0.25 μM: 0.25 μM compound
Outline: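 Growth inhibition is scored relative to cells receiving only 0.5% (v/v) DMSO. Plated cells rest 4 h, then take compound for three to five days at 37° C; MTT reduction to formazan is read at 540 nm.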

Nc1nc(NC2CCN(S(=O)(=O)Cc3ccccc3)CC2)sc1C(=O)c1c(F)cccc1F [Example F4, 1-[4-Amino-2-(1-phenylmethanesulfonyl-piperidin-4-ylamino)-thiazol-5-yl]-1-(2,6-difluoro-phenyl)-methanone]
pKi (CDK2/Cyclin A): 8.39
pKi [1]: 8.55
pIC50 (HCT-116 cell line; first HCT-116 column (c4)): 6.59
pIC50 (HCT-116 cell line; second HCT-116 column (c5)): 6.23

CC(CN(C)C)Oc1ccc(S(=O)(=O)N2CCC(Nc3nc(N)c(C(=O)c4c(F)cccc4F)s3)CC2)cn1 (racemic) [Example H13, 1-(4-Amino-2-{1-[6-(2-dimethylamino-1RS-methyl-ethoxy)-pyridine-3-sulfonyl]-piperidin-4-ylamino}-thiazol-5-yl)-1-(2,6-fifluoro-phenyl)-methanone Dihydrochloride]
pKi (CDK2/Cyclin A): 8.96
pKi [1]: 9.19
pIC50 (HCT-116 cell line; first HCT-116 column (c4)): 7.05
pIC50 (HCT-116 cell line; second HCT-116 column (c5)): 6.40

Nc1nc(NC2CCN(C(=O)C3CCC3)CC2)sc1C(=O)c1c(F)cccc1F [Example Q56]
CDK2 % Inhibition at 0.03 μM (CDK2/Cyclin A; 0.03 μM compound, Table 4): 12%
CDK4 % Inhibition at 0.03 μM ([1]; 0.03 μM compound, Table 4): 14%
HCT-116 % Inhibition at 0.1 μM (HCT-116 cell line; 0.1 μM compound, HCT-116, Table 4): 0%
HCT-116 % Inhibition at 0.25 μM (HCT-116 cell line; HCT-116, Table 4): 35%

CCOc1ccccc1C(=O)N1CCC(Nc2nc(N)c(C(=O)c3c(F)cccc3F)s2)CC1 [Example R6]
CDK2 % Inhibition at 0.03 μM (CDK2/Cyclin A; at 0.03 μM): 14%
CDK4 % Inhibition at 0.03 μM ([1]; at 0.03 μM): 42%
HCT-116 % Inhibition at 0.1 μM (HCT-116 cell line; HCT-116 cells, at 0.1 μM): 12%
HCT-116 5 Inhibition at 0.25 μM (HCT-116 cell line; HCT-116 cells): 51

Nc1nc(NC2CCN(C(=S)Oc3ccc(F)cc3)CC2)sc1C(=O)c1c(F)cccc1F [Example R85]
CDK2 % Inhibition at 0.03 μM (CDK2/Cyclin A; at 0.03 μM): 90%
CDK4 % Inhibition at 0.03 μM ([1]; at 0.03 μM): 81%
HCT-116 % Inhibition at 0.1 μM (HCT-116 cell line; HCT-116 cells, at 0.1 μM): 0%
HCT-116 5 Inhibition at 0.25 μM (HCT-116 cell line; HCT-116 cells): 47

Nc1nc(NC2CCN(S(=O)(=O)CCN3CC=CCC3)CC2)sc1C(=O)c1c(F)cccc1F [Example K32, (4-Amino-2-{1-[2-(3,6-dihydro-2H-pyridin-1-yl)-ethanesulfonyl]-piperidin-4-ylamino}-thiazol-5-yl)-(2,6-difluoro-phenyl)-methanone Trifluoroacetic Acid Salt.]
pKi (CDK2/Cyclin A): 8.21
pKi [1]: 8.68
pIC50 (HCT-116 cell line; first HCT-116 column (c4)): 6.72
pIC50 (HCT-116 cell line; second HCT-116 column (c5)): 5.85

CC(=O)Nc1ccccc1C(=O)N1CCC(Nc2nc(N)c(C(=O)c3c(F)cccc3F)s2)CC1 [Example R111]
CDK2 % Inhibition at 0.03 μM (CDK2/Cyclin A; at 0.03 μM): 11%
CDK4 % Inhibition at 0.03 μM ([1]; at 0.03 μM): 25%
HCT-116 % Inhibition at 0.1 μM (HCT-116 cell line; HCT-116 cells, at 0.1 μM): 4%
HCT-116 5 Inhibition at 0.25 μM (HCT-116 cell line; HCT-116 cells): 52

Cc1ccc(C(=O)N2CCC(Nc3nc(N)c(C(=O)c4c(F)cccc4F)s3)CC2)c(C)c1 [Example R126]
CDK2 % Inhibition at 0.03 μM (CDK2/Cyclin A; at 0.03 μM): 43%
CDK4 % Inhibition at 0.03 μM ([1]; at 0.03 μM): 57%
HCT-116 % Inhibition at 0.1 μM (HCT-116 cell line; HCT-116 cells, at 0.1 μM): 0%
HCT-116 5 Inhibition at 0.25 μM (HCT-116 cell line; HCT-116 cells): 33

Cc1c(S(=O)(=O)N2CCC(Nc3nc(N)c(C(=O)c4c(F)cccc4F)s3)CC2)sc2ccc(Cl)cc12 [Example P69]
CDK2 % Inhibition at 0.03 μM (CDK2/Cyclin A; 0.03 μM compound, Table 3): −2%
CDK4 % Inhibition at 0.03 μM ([1]; 0.03 μM compound, Table 3): 21%
HCT-116 % Inhibition at 0.1 μM (HCT-116 cell line; 0.1 μM compound, HCT-116, Table 3): 13%
HCT-116 % Inhibition at 0.25 μM (HCT-116 cell line; HCT-116, Table 3): 30%

Nc1nc(NC2CCN(S(=O)(=O)c3ccc(O)nc3)CC2)sc1C(=O)c1c(F)cccc1F [Example H1, 1-{4-Amino-2-[1-(6-hydroxy-pyridine-3-sulfonyl)-piperidin-4-ylamino]-thiazol-5-yl}-1-(2,6-difluoro-phenyl)-methanone Trifluoroacetic Acid Salt]
pKi (CDK2/Cyclin A): > 9.00
pKi [1]: 9.14
pIC50 (HCT-116 cell line; first HCT-116 column (c4)): 5.59
pIC50 (HCT-116 cell line; second HCT-116 column (c5)): < 5.30

C[C@@H]1CN(c2ccc(S(=O)(=O)N3CCC(Nc4nc(N)c(C(=O)c5c(F)cccc5F)s4)CC3)cn2)C[C@H](C)N1 [Example G15, 1-(4-Amino-2-{1-[6-(3,5-dimethyl-piperizin-1-yl)-pyridin-3-sulfonyl]-piperidin-4-ylamino}-thiazol-5-yl)-1-(2,6-difluoro-phenyl)-methanone Trifluoroacetic Acid Salt]
pKi (CDK2/Cyclin A): 9.14
pKi [1]: 9.55
pIC50 (HCT-116 cell line; first HCT-116 column (c4)): 7.10
pIC50 (HCT-116 cell line; second HCT-116 column (c5)): < 6.30

COc1cccc(C(=O)N2CCC(Nc3nc(N)c(C(=O)c4c(F)cccc4F)s3)CC2)c1 [Example R136]
CDK2 % Inhibition at 0.03 μM (CDK2/Cyclin A; at 0.03 μM): 26%
CDK4 % Inhibition at 0.03 μM ([1]; at 0.03 μM): 45%
HCT-116 % Inhibition at 0.1 μM (HCT-116 cell line; HCT-116 cells, at 0.1 μM): 0%
HCT-116 5 Inhibition at 0.25 μM (HCT-116 cell line; HCT-116 cells): 37
